Consider one molecule from patent publication US12552854B2, “Peptides that block presentation of antigenic islet peptides by HLA-DQ8 and methods for treating type-1 diabetes” (Icahn School of Medicine at Mount Sinai, priority 2019, dated 2026).

Structures are written as SMILES. Values joined by “and” are separate entries in the source; they are usually repeats but may differ in a detail not shown here. Equal values may be shown once. “Also recorded” adds a separate entry of the source.

For series [1], the system named is PBMCs isolated from DQ8 positive T1D patients. Description: CFSE T-cell proliferation in PBMCs from DQ8 positive recent-onset T1D patients. Particulars: all peptides at 50 μg/ml. Type of series: cell-based, human. The text has this: Subjects with a diagnosis of T1D within the previous 2 years were recruited from the Pediatric Endocrine clinic at Children Hospital at Montefiore and from the adult Endocrine clinics at Montefiore and Mount Sinai Hospitals (New York). Peripheral blood mononuclear cells (PBMCs) were isolated from heparinized blood using Ficoll-Paque (GE Healthcare); freshly isolated PBMCs were used for T-cell activation studies and for genotyping. DNA purified from the blood of the patients was typed for HLA-DQ as previously described (32). PBMCs isolated from DQ8 positive patients were seeded in 96 well plates with 200 μl medium (RPMI, 10% FBS). […] The stimulated PBMCs were assessed for cytokine production and T-cell proliferation as described above for mouse splenocytes. DQ8 typed patients with long standing T1D (>10 years) were used as negative controls in the experiments (no T-cell responses to islet peptides).

For series [2], the system named is lymphocytes isolated from SJL-DQ8 mice immunized with GAD65. Description: Ex vivo T-cell activation to GAD65 peptide, lymphocytes of GAD65-immunized SJL-DQ8 mice. Format: cell-based, mouse. Conditions: all peptides at 20 μg/ml; 48 hours. As to the method: The mouse model used in this experiment was SJL-DQ8 mice. When immunized with different type 1 diabetes associated peptides, they developed strong T-cell responses to these peptides. In the ex vivo model, lymphocytes were taken from the spleen of these mice after immunization with an Insulin or GAD65 peptide. They were then stimulated with the peptide used for immunizations and the tested D-peptide was added to see if it blocked T-cell stimulation as measured by IL-2 and interferon γ (IFNγ) production (FIGS. 18 and 19).
The cells were treated with medium or GAD65 (with or without D-peptides), all peptides at 20 μg/ml. Supernatants from stimulated lymphocytes were collected 48 hours after stimulation and stored at −80° C. until the Luminex assay was performed. The Milliplex mouse cytokines/chemokines magnetic panel (EMD Millipore Corporation, Billerica, MA) and a Luminex 200 with xPONENT software (Luminex, Austin, Texas) were used to assay the cytokines following the manufacturer's instructions.

Series [3] in a line: Metabolic stability in mouse hepatocytes. Format: in vitro ADME. Conditions: 1 μM. How it is done: Cryopreserved mouse hepatocytes were thawed at 37° C. in water bath until the ice was almost melted (˜90 seconds). The suspensions from the each were immediately transferred to 50 mL centrifuge tubes containing pre-warmed thawing media (VitroGRO HT Medium, Thawing) at 37° C. The cell suspensions were centrifuged at 50 g for 5 minutes at 4° C. (SYS679). Supernatants were discarded and the pellets were re-suspended in pre-warmed 3 mL incubation media (from in vitroGRO HT Medium, Incubation) at 37° C. The percentages of viable cells in the suspension were determined by using the Trypan Blue stain method (20 μL of tryptan blue and 20 μL of cell suspension) DF=2. Cryo mouse hepatocyte (Bioreclamation, lot #CHV) viability was 72.62% (viable/dead=305/115), and the total cells were 4.57 million. 1.57 mL of incubation media was added to cell concentration to get 1 million cells/mL. 10 μl of 100 μM test compounds stock in ACN:H2O (v:v, 1:1) was added to 990 μl of hepatocyte suspension/incubation media in a 24-well plate. 10 μl of 20 μM Midazolam was added to 990 μl of hepatocyte suspension as a positive control in a 24-well plate. The cells were incubated in a 37° C. incubator (SYS431) for 4 hours. 50 μl of aliquots (n=2) were added to 800 ul of MeOH:water (v:v, 5:95) at 0, 15, 30, 60, 120, 180 and 240 minutes. For all samples, 20 μL of internal standard (200 ng/mL tolbutamide) was added to the solution in water. The samples were vortexed vigorously for 5 minutes and then loaded onto a pre-conditioned Oasis HLB 96-well SPE plate (10 mg, […]). The Oasis HLB 96-well SPE plate was conditioned with 1 mL of methanol and then rinsed with 1 mL of water before the samples were loaded. Once loaded onto the Oasis HLB 96-well SPE plate, residual solution was removed by vacuum. The samples were eluted into a clean 96-well plate with 800 μL of 0.1% formic acid in 70% acetonitrile. The samples were evaporated to dryness under nitrogen at ambient temperature using a TurboVap 96 Concentration Workstation (Caliper Life Sciences). […]

Series [4] in a line: FIG. 23A. How it is done:
Table printed on a drawing sheet, FIG. 23A
Data from a dose of 10 mg/kg and a single discrete subcutaneous dose of 10 mg/kg are shown. FIG. 23B is a graph showing mean RI-CT whole blood concentrations in male CD-1 mice following a single IV bolus dose of 10 mg/kg and a single SC dose of 10 mg/kg. […] This is a long half-life that will make it feasible to use RI-CT in a clinical setting with a once daily dose.
First reader's note: IV arm; the last four rows (n, Mean, SD, CV%) are summary statistics over the animals, and the urine values are one merged cell for Mouse 1-4.

In the case of `CC(C)C[C@@H](NC(=O)[C@@H](Cc1ccc(O)cc1)NC(=O)[C@@H](CC(C)C)NC(=O)[C@H](NC(=O)[C@@H](CS)NC(=O)CNC(=O)[C@@H](CCC(=O)O)NC(=O)[C@@H](CCCNC(=N)N)NC(=O)CNC(=O)CN)C(C)C)C(=O)N[C@H](C)C(=O)N[C@H](CCC(=O)O)C(=O)N[C@@H](C(=O)NCC(=O)NCC(=O)O)C(C)C` [RI-CT], the “T-cell proliferation induced by InsB:9-23 (CFSE assay), PBMCs of DQ8 positive T1D patients” value in series [1] is given as “significantly suppressed; also recorded: significantly decreased”. For the same molecule, the “blocking T cell activation ex vivo to GAD65 (IL-2, IFNγ production)” value in series [2] is listed as “some activity”. Besides, the “consumption of the peptide after incubation with murine hepatocytes” value in series [3] (4 hours) is reported as “little/no consumption”. Moreover, the “metabolic stability (comparison)” value in series [3] (mouse hepatocytes) is recorded as “higher metabolic stability compared to RI-EXT”. Besides, in series [4], the “AUC0-24” value worked out at 5340 ng·h/mL; the “AUClast” value was 4350 ng·h/mL and 6260 ng·h/mL and 5520 ng·h/mL; the “C0” value came to 15400 ng/mL; the “MRTinf” value turned out to be 4.72 h. Also, in series [4], the “Urine | CLrenal” value is recorded as 2.6 mL/min/kg and the “Urine | Recovery (%)” value was determined as 8.70%.
